Measured values reported in patent US6756362B2, “Methods and compositions based on inhibition of cell invasion and fibrosis by anionic polymers” (priority 1991, dated 2004).

Key:
Set-up in all cases: key: Bands that were completely inhibitory to cell adhesion, migration and/or invasion were evaluated as (−); those allowing limited cell adhesion, migration and/or invasion (+/−); those permissive to cell adhesion, migration and/or invasion as (+)
[1] = tested on: MCG-28 young immortalized mouse astrocyte; experiment: Stripe assay, MCG-28; assay type: cell-based; details: MCG28; for DS-PG Effect on Adhesion, Migration and Invasion: 2 days following plating
Protocol: (§1) Cell lines. Murine 3T3 fibroblast (NIH), rat C6 glioma (Paganetti et al., 1988, J. Cell Biol. 107:2281) and MCG-28 young immortalized mouse astrocyte (a murine neonatal astrocyte line immortalized with SV-40) were grown in medium composed of Dulbecco's modified Eagle medium (DMEM), 10% fetal calf serum (Gibco Laboratories), and penicillin G/streptomycin (100 units/ml, 100 μg/ml respectively, Gibco Laboratories). For the stripe assay, confluent plates were disaggregated with 0.05% trypsin, 0.53 mM EDTA (Gibco Laboratories) and seeded at 200,000 cells/ml (3 ml/plate). For the cell adhesion assays, confluent cultures were disaggregated with 0.03% EDTA and plated in a 96-well microtiter plate at 20,000-100,000 cells per well. PC12 cells, a pheochromocytoma cell line (Green L. A. & Tischler A. S., 1976, Proc. Natl. Acad. Sci. U.S.A. 73:2424), were grown in medium containing Roswell Park Memorial Institute (RPMI) medium 1640 (Gibco Laboratories), 10% horse serum, 5% fetal calf serum (FCS), and penicillin G/streptomycin (100 units/ml, 100 μg/ml respectively, Gibco Laboratories). The cells were disaggregated with 0.03% EDTA and plated in a 96-well microtiter plate at 3,000 cells per well.
(§2) The stripe assay was performed essentially as described by Snow et al. (1990, Exp. Neural. 309:111-130). Tissue culture Petri dishes (Falcon, 60 mm) were precoated with 0.5 ml of a mixture of 5 cm^2 section nitrocellulose (Schleicher & Schuell, Type BA 85) dissolved in 6 ml methanol, and air dried in a laminar flow hood. Cellulose filter paper (Whatman #1) was cut into 12×0.35 mm strips with a McIlwain tissue chopper (The Mickle Laboratory Engineering Co., LTD). A strip of filter paper was soaked in 20 μl of a solution of DS-PG or KS/CS-PG and LN at given concentration, blotted onto the nitrocellulose-coated dish for 30 sec. and removed. The test solution was allowed to air dry. This process was repeated several times creating clearly defined, equally spaced parallel bands of uniform width on the plates. A thin layer of 0.1 or 1 mg/ml LN was then spread evenly across the bands with a bent glass Pasteur pipet, and covered with culture medium (FIG. 1).
(§3) Plates were seeded with cell suspensions of 2.0×10^5 cells/ml or 4-10 DRG explants. The cultures were assessed for degree of adhesion, migration and/or invasion of the DS-PG or KS/CS-PG bands over a period of up to 7 days using a Leitz Fluovert microscope.
(§4) Bands that were completely inhibitory to cell adhesion, migration and/or invasion were evaluated as (−), those allowing limited cell adhesion, migration and/or invasion (+/−), and those permissive to cell adhesion, migration and/or invasion as (+). cell adhesion was defined as the initial interaction between the cell surface and the substratum which results in cell attachment and spreading. Cell migration was operationally defined as cell movement within the same substratum, and cell invasion was operationally defined as cell movement from one type of substratum to another type of substratum.

[2] = tested on: Murine 3T3 fibroblast; experiment: Stripe assay, 3T3; assay type: cell-based, mouse; details: for DS-PG Effect on Adhesion, Migration and Invasion / Effect of KS/CS-PG on Cell Migration: 3T3; for DS-PG Effect on Adhesion, Migration and Invasion: 2 days following plating
Protocol: as §1, §2, §3, §4

[3] = tested on: dorsal root ganglia (DRG) explants; experiment: Stripe assay, DRG explants; assay type: cell-based, chick; details: for DS-PG Effect on Adhesion, Migration and Invasion: 2 days following plating
Protocol: Primary Explant Cultures. Dorsal root ganglia (DRGs) were obtained from E8-E9 chick embryos. The dissection was carried out in CMF-HBSS. The spinal cord was exposed and DRGs were removed and cleaned from surrounding connective tissue. DRGs were plated in DMEM/F12, 10% fetal calf serum containing 50 ng/ml nerve growth factor (NGF). The DRGs were seeded on laminin (LN, Gibco Laboratories) or poly-L-lysine (PLL, Sigma) coated dishes.
as §2, §3, §4

[4] = tested on: adult rat sciatic nerve fibroblasts (RSF); experiment: Stripe assay, RSF; assay type: cell-based; details: for DS-PG Effect on Adhesion, Migration and Invasion: 2 days following plating
Protocol: Primary Cell Cultures. Primary cultures of rat meningeal fibroblasts (RMF) were obtained from P-3 rat pups. The tissue was removed from the animals and transferred to Leibovitz's L-15 with L-glutamine medium. The tissue was then cut into small pieces with a scalpel blade, enzymatically dissociated with 0.25% trypsin in Ca^2+/Mg^2+ free Hank's balanced salt solution (CMF-HBSS, Gibco Laboratories) for 20 minutes at 37° C., and mechanically triturated. The cells were rinsed with DMEM plus 10% FCS, concentrated by centrifugation and subsequently diluted in DMEM with 10% FCS for plating at 5.0×10^6 cells per 75 cm^2 flask. Adult rat sciatic nerve fibroblasts (RSF) were obtained by explantation of 1 mm sections of adult rat sciatic nerve.
as §2, §3, §4

[5] = 0.1 mg/ml DS-PG + 20 μg/ml LN stripes
[6] = 0.2 mg/ml DS-PG + 20 μg/ml LN stripes
[7] = 0.4 mg/ml DS-PG + 20 μg/ml LN stripes
[8] = 0.8 mg/ml DS-PG + 20 μg/ml LN stripes
[9] = 0.25 mg/ml KS/CS-PG + LN stripes
[10] = 0.5 mg/ml KS/CS-PG + LN stripes
[11] = 1.0 mg/ml KS/CS-PG + LN stripes
[12] = 2.7 mg/ml KS/CS-PG + LN stripes

Dermatan sulfate proteoglycan [DS-PG]
DS-PG Effect on Adhesion, Migration and Invasion [1, 5]: + | DS-PG Effect on Adhesion, Migration and Invasion [1, 6]: + | DS-PG Effect on Adhesion, Migration and Invasion [1, 7]: − | DS-PG Effect on Adhesion, Migration and Invasion [1, 8]: − | Time Dependent Effect of DS-PG on 3T3 Cell Migration ([2]; 0.1 mg/ml (1.25 μM), 1d): + | Time Dependent Effect of DS-PG on 3T3 Cell Migration ([2]; 0.1 mg/ml (1.25 μM), 2d): + | Time Dependent Effect of DS-PG on 3T3 Cell Migration ([2]; 0.1 mg/ml (1.25 μM), 3d): + | Time Dependent Effect of DS-PG on 3T3 Cell Migration ([2]; 0.1 mg/ml (1.25 μM), 4d): + | Time Dependent Effect of DS-PG on 3T3 Cell Migration ([2]; 0.1 mg/ml (1.25 μM), 7d): + | DS-PG Effect on Adhesion, Migration and Invasion [2, 5]: + | Time Dependent Effect of DS-PG on 3T3 Cell Migration ([2]; 0.2 mg/ml (2.5 μM), 1d): +/− | Time Dependent Effect of DS-PG on 3T3 Cell Migration ([2]; 0.2 mg/ml (2.5 μM), 2d): +/− | Time Dependent Effect of DS-PG on 3T3 Cell Migration ([2]; 0.2 mg/ml (2.5 μM), 3d): +/− | Time Dependent Effect of DS-PG on 3T3 Cell Migration ([2]; 0.2 mg/ml (2.5 μM), 4d): +/− | Time Dependent Effect of DS-PG on 3T3 Cell Migration ([2]; 0.2 mg/ml (2.5 μM), 7d): + | DS-PG Effect on Adhesion, Migration and Invasion [2, 6]: +/− | Time Dependent Effect of DS-PG on 3T3 Cell Migration ([2]; 0.4 mg/ml (5 μM), 1d): − | Time Dependent Effect of DS-PG on 3T3 Cell Migration ([2]; 0.4 mg/ml (5 μM), 2d): − | Time Dependent Effect of DS-PG on 3T3 Cell Migration ([2]; 0.4 mg/ml (5 μM), 3d): − | Time Dependent Effect of DS-PG on 3T3 Cell Migration ([2]; 0.4 mg/ml (5 μM), 4d): − | Time Dependent Effect of DS-PG on 3T3 Cell Migration ([2]; 0.4 mg/ml (5 μM), 7d): +/− | DS-PG Effect on Adhesion, Migration and Invasion [2, 7]: − | Time Dependent Effect of DS-PG on 3T3 Cell Migration ([2]; 0.8 mg/ml (10 μM), 1d): − | Time Dependent Effect of DS-PG on 3T3 Cell Migration ([2]; 0.8 mg/ml (10 μM), 2d): − | Time Dependent Effect of DS-PG on 3T3 Cell Migration ([2]; 0.8 mg/ml (10 μM), 3d): − | Time Dependent Effect of DS-PG on 3T3 Cell Migration ([2]; 0.8 mg/ml (10 μM), 4d): − | Time Dependent Effect of DS-PG on 3T3 Cell Migration ([2]; 0.8 mg/ml (10 μM), 7d): +/− | DS-PG Effect on Adhesion, Migration and Invasion [2, 8]: − | DS-PG Effect on Adhesion, Migration and Invasion [3, 5]: + | DS-PG Effect on Adhesion, Migration and Invasion [3, 6]: +/− | DS-PG Effect on Adhesion, Migration and Invasion [3, 7]: − | DS-PG Effect on Adhesion, Migration and Invasion [3, 8]: − | DS-PG Effect on Adhesion, Migration and Invasion [4, 5]: +/− | DS-PG Effect on Adhesion, Migration and Invasion [4, 6]: +/− | DS-PG Effect on Adhesion, Migration and Invasion [4, 7]: − | DS-PG Effect on Adhesion, Migration and Invasion [4, 8]: −

keratan sulfate/chrondroitin sulfate-proteoglycans [KS/CS-PG]
Effect of KS/CS-PG on Cell Migration [1, 9]: + | Effect of KS/CS-PG on Cell Migration [1, 10]: + | Effect of KS/CS-PG on Cell Migration [1, 11]: + | Effect of KS/CS-PG on Cell Migration [1, 12]: +/− | Effect of KS/CS-PG on Cell Migration [2, 9]: + | Effect of KS/CS-PG on Cell Migration [2, 10]: +/− | Effect of KS/CS-PG on Cell Migration [2, 11]: +/− | Effect of KS/CS-PG on Cell Migration [2, 12]: − | Effect of KS/CS-PG on Cell Migration [3, 9]: + | Effect of KS/CS-PG on Cell Migration [3, 10]: − | Effect of KS/CS-PG on Cell Migration [3, 11]: − | Effect of KS/CS-PG on Cell Migration [3, 12]: − | Effect of KS/CS-PG on Cell Migration [4, 9]: + | Effect of KS/CS-PG on Cell Migration [4, 10]: +/− | Effect of KS/CS-PG on Cell Migration [4, 11]: +/− | Effect of KS/CS-PG on Cell Migration [4, 12]: +/−
